Measurements from ChEMBL document CHEMBL5500358, “Identification of CH2-linked quinolone-aminopyrimidine hybrids as potent anti-MRSA agents: Low resistance potential and lack of cross-resistance with fluoroquinolone antibiotics” (Eur J Med Chem, 2024).
≈ marks a conversion by molar mass, not a printed value. Calls of active or inactive are those of the source. The calls are words filed in the database; no cut-off is given here.

Legend:
[1] = system: Staphylococcus aureus; assay: Antibacterial activity against fluoroquinolone-sensitive methicillin resistant Staphylococcus aureus ATCC 33591 incubated for 16 to 18 hrs by absorbance based analysis; assay type: functional; details: time 16-18 hrs
[2] = system: Escherichia coli; assay: Antibacterial activity against Escherichia coli ATCC 25922 incubated for 16 to 18 hrs by absorbance based analysis; assay type: functional; details: time 16-18 hrs
[3] = system: Staphylococcus aureus; assay: Antibacterial activity against fluoroquinolone-sensitive methicillin resistant Staphylococcus aureus USA500 incubated for 16 to 18 hrs by absorbance based analysis; assay type: functional; details: time 16-18 hrs
[4] = system: Staphylococcus aureus; assay: Antibacterial activity against fluoroquinolone/methicillin resistant Staphylococcus aureus Mu50 incubated for 16 to 18 hrs by absorbance based analysis; assay type: functional; details: time 16-18 hrs
[5] = Metabolic stability in human liver microsomes assessed as elimination half life at 1 uM by LC-MS/MS analysis; assay type: ADME, Microsome; details: read-out: beta t1/2
[6] = Metabolic stability in rat liver microsomes assessed as elimination half life at 1 uM by LC-MS/MS analysis; assay type: ADME, Microsome; details: read-out: beta t1/2
[7] = Metabolic stability in human liver microsomes assessed as drug elimination rate constant at 1 uM by LC-MS/MS analysis; assay type: ADME, Microsome
[8] = Metabolic stability in human liver microsomes assessed as microsomal intrinsic clearance at 1 uM by LC-MS/MS analysis; assay type: ADME, Microsome; details: read-out: CLH
[9] = Metabolic stability in human liver microsomes assessed as liver intrinsic clearance at 1 uM by LC-MS/MS analysis; assay type: ADME, Microsome; details: read-out: CLH
[10] = Metabolic stability in human liver microsomes assessed as compound remaining at 1 uM measured after 60 mins by LC-MS/MS analysis; assay type: ADME, Microsome; details: read-out: Stability
[11] = Metabolic stability in rat liver microsomes assessed as drug elimination rate constant at 1 uM by LC-MS/MS analysis; assay type: ADME, Microsome
[12] = Metabolic stability in rat liver microsomes assessed as microsomal intrinsic clearance at 1 uM by LC-MS/MS analysis; assay type: ADME, Microsome; details: read-out: CLH
[13] = Metabolic stability in rat liver microsomes assessed as liver intrinsic clearance at 1 uM by LC-MS/MS analysis; assay type: ADME, Microsome; details: read-out: CLH
[14] = Metabolic stability in rat liver microsomes assessed as compound remaining at 1 uM measured after 60 mins by LC-MS/MS analysis; assay type: ADME, Microsome; details: read-out: Stability
[15] = system: A549; assay: Cytotoxicity against human A549 cells assessed as reduction in cell viability at 100 uM incubated for 24 hrs by CCK-8 assay; assay type: toxicity, cell-based; details: a549, 24 h
[16] = system: HEK293; assay: Cytotoxicity against HEK293 cells assessed as reduction in cell viability at 100 uM incubated for 24 hrs by CCK-8 assay; assay type: toxicity, cell-based; details: human, hek293, 24 h
[17] = system: Staphylococcus aureus; assay: Antibacterial activity against methicillin resistant Staphylococcus aureus ATCC 33591 measured after 15 passages; assay type: functional

SMILES | MIC [1] [µg/mL] | MIC [2] [µg/mL] | MIC [3] [µg/mL] | MIC [4] [µg/mL] | further results
COc1ccccc1Cc1ccnc(Nc2cc3c(cc2F)c(=O)c(C(=O)O)cn3C2CC2)n1 | 4 (≈ 8.69 µM) | > 64 |  |  | 
O=C(O)c1cn(C2CC2)c2cc(Nc3nccc(Cc4ccccc4Cl)n3)c(F)cc2c1=O | 2 (≈ 4.3 µM) | > 64 | 6.25 (≈ 13.4 µM) | 6.25 (≈ 13.4 µM) | 
O=C(O)c1cn(C2CC2)c2cc(Nc3nccc(Cc4ccc(F)c(F)c4)n3)ccc2c1=O | 0.5 (≈ 1.12 µM) | > 64 | 0.78 (≈ 1.74 µM) | 1.56 (≈ 3.48 µM) | 
COc1cccc(Cc2ccnc(Nc3cc4c(cc3F)c(=O)c(C(=O)O)cn4C3CC3)n2)c1 | 8 (≈ 17.4 µM) | > 64 |  |  | 
O=C(O)c1cn(C2CC2)c2cc(Nc3nccc(Cc4ccc(Cl)cc4Cl)n3)ccc2c1=O | 0.25 (≈ 0.519 µM) | > 64 | 0.39 (≈ 0.81 µM) | 0.78 (≈ 1.62 µM) | 
Cc1ccc(Cc2ccnc(Nc3cc4c(cc3F)c(=O)c(C(=O)O)cn4C3CC3)n2)c(C)c1 | 1 (≈ 2.18 µM) | > 64 | 6.25 (≈ 13.6 µM) | 6.25 (≈ 13.6 µM) | 
N#Cc1ccccc1Cc1ccnc(Nc2cc3c(cc2F)c(=O)c(C(=O)O)cn3C2CC2)n1 | 8 (≈ 17.6 µM) | > 64 |  |  | 
O=C(O)c1cn(C2CC2)c2cc(Nc3nccc(Cc4ccc(Cl)cc4Cl)n3)c(F)cc2c1=O | 0.5 (≈ 1 µM) | > 64 | 3.12 (≈ 6.25 µM) | 3.12 (≈ 6.25 µM) | 
Cc1ccc(Cc2ccnc(Nc3cc4c(cc3F)c(=O)c(C(=O)O)cn4C3CC3)n2)cc1 | 2 (≈ 4.5 µM) | > 64 |  |  | 
O=C(O)c1cn(C2CC2)c2cc(Nc3nccc(Cc4ccc(F)cc4)n3)c(F)cc2c1=O | 2 (≈ 4.46 µM) | > 64 |  |  | 
Cc1ccc(Oc2ccnc(Nc3ccc4c(=O)c(C(=O)O)cn(C5CC5)c4c3)n2)cc1C | 0.5 (≈ 1.13 µM) | > 64 | 0.39 (≈ 0.881 µM) | 0.39 (≈ 0.881 µM) | half-life at 1 µM [5]: 25.9 min; half-life at 1 µM [6]: 8.7 min
O=C(O)c1cn(C2CC2)c2cc(Nc3nccc(Cc4ccc(Cl)cc4)n3)c(F)cc2c1=O | 1 (≈ 2.15 µM) | > 64 | 1.56 (≈ 3.36 µM) | 3.12 (≈ 6.71 µM) | 
O=C(O)c1cn(C2CC2)c2cc(Nc3nccc(Cc4ccccc4F)n3)c(F)cc2c1=O | 2 (≈ 4.46 µM) | > 64 |  |  | 
O=C(O)c1cn(C2CC2)c2cc(Nc3nccc(Cc4ccc(Cl)c(Cl)c4)n3)ccc2c1=O | 0.5 (≈ 1.04 µM) | > 64 | 1.56 (≈ 3.24 µM) | 1.56 (≈ 3.24 µM) | 
Cc1cccc(Cc2ccnc(Nc3cc4c(cc3F)c(=O)c(C(=O)O)cn4C3CC3)n2)c1 | 4 (≈ 9 µM) | > 64 |  |  | 
O=C(O)c1cn(C2CC2)c2cc(Nc3nccc(Cc4ccc(Cl)c(Cl)c4)n3)c(F)cc2c1=O | 0.5 (≈ 1 µM) | > 64 | 6.25 (≈ 12.5 µM) | 6.25 (≈ 12.5 µM) | 
O=C(O)c1cn(C2CC2)c2cc(Nc3nccc(Cc4cccc(Cl)c4)n3)c(F)cc2c1=O | 2 (≈ 4.3 µM) | > 64 | 6.25 (≈ 13.4 µM) | 6.25 (≈ 13.4 µM) | 

SMILES | MIC [1] [µg/mL] | MIC [2] [µg/mL] | MIC [3] [µg/mL] | MIC [4] [µg/mL] | further results
O=C(O)c1cn(C2CC2)c2cc(Nc3nccc(Cc4ccc(Cl)cc4)n3)ccc2c1=O | 0.5 (≈ 1.12 µM) | > 64 | 1.56 (≈ 3.49 µM) | 1.56 (≈ 3.49 µM) | 
Cc1ccc(Cc2ccnc(Nc3cc4c(cc3F)c(=O)c(C(=O)O)cn4C3CC3)n2)cc1C | 2 (≈ 4.36 µM) | > 64 | 25 (≈ 54.5 µM) | 25 (≈ 54.5 µM) | 
O=C(O)c1cn(C2CC2)c2cc(Nc3nccc(Cc4ccccc4)n3)c(F)cc2c1=O | 4 (≈ 9.29 µM) | > 64 |  |  | 
O=C(O)c1cn(C2CC2)c2cc(N3CCNCC3)c(F)cc2c1=O [CIPROFLOXACIN] | 0.25 (≈ 0.754 µM) |  | 0.39 (≈ 1.18 µM) |  | 
O=C(O)c1cn(C2CC2)c2cc(Nc3nccc(Cc4cccc(F)c4)n3)c(F)cc2c1=O | 2 (≈ 4.46 µM) | > 64 |  |  | 
Cc1ccc(Cc2ccnc(Nc3ccc4c(=O)c(C(=O)O)cn(C5CC5)c4c3)n2)cc1C | 0.5 (≈ 1.14 µM) | > 64 | 0.78 (≈ 1.77 µM) | 0.78 (≈ 1.77 µM) | k el at 1 µM [7]: 0.000233 s⁻¹; half-life at 1 µM [5]: 49.4 min; microsomal CLint at 1 µM [8]: 28.2 µL/min/mg; CLint scaled at 1 µM [9]: 26.6 mL/min/kg; remaining at 1 h, 1 µM [10]: 41.1%; k el at 1 µM [11]: 0.0002 s⁻¹; half-life at 1 µM [6]: 59.2 min; microsomal CLint at 1 µM [12]: 23.4 µL/min/mg; CLint scaled at 1 µM [13]: 42.2 mL/min/kg; remaining at 1 h, 1 µM [14]: 49.6%; Activity [15]: Toxic; Activity [16]: Toxic
O=C(O)c1cn(C2CC2)c2cc(Nc3nccc(Cc4ccccc4Cl)n3)ccc2c1=O | 0.5 (≈ 1.12 µM) | > 64 | 3.12 (≈ 6.98 µM) | 3.12 (≈ 6.98 µM) | 
C[C@H]1COc2c(N3CCN(C)CC3)c(F)cc3c(=O)c(C(=O)O)cn1c23 [LEVOFLOXACIN ANHYDROUS] |  |  | 0.2 (≈ 0.553 µM) | 25 (≈ 69.2 µM) | 
O=C(O)c1cn(C2CC2)c2cc(Nc3nccc(Cc4cccc(Cl)c4)n3)ccc2c1=O | 0.5 (≈ 1.12 µM) | > 64 | 1.56 (≈ 3.49 µM) | 1.56 (≈ 3.49 µM) | 
Cc1ccc(Cc2ccnc(Nc3ccc4c(=O)c(C(=O)O)cn(C5CC5)c4c3)n2)c(C)c1 | 1 (≈ 2.27 µM) | > 64 | 1.56 (≈ 3.54 µM) | 1.56 (≈ 3.54 µM) | 
CN[C@H](CC(C)C)C(=O)N[C@H]1C(=O)N[C@@H](CC(N)=O)C(=O)N[C@H]2C(=O)N[C@H]3C(=O)N[C@H](C(=O)N[C@H](C(=O)O)c4cc(O)cc(O)c4-c4cc3ccc4O)[C@H](O)c3ccc(c(Cl)c3)Oc3cc2cc(c3O[C@@H]2O[C@H](CO)[C@@H](O)[C@H](O)[C@H]2O[C@H]2C[C@](C)(N)[C@H](O)[C@H](C)O2)Oc2ccc(cc2Cl)[C@H]1O [VANCOMYCIN] |  | > 64 | 0.78 (≈ 0.538 µM) | 3.12 (≈ 2.15 µM) | Activity [17]: inactive
Cc1ccccc1Cc1ccnc(Nc2cc3c(cc2F)c(=O)c(C(=O)O)cn3C2CC2)n1 | 2 (≈ 4.5 µM) | > 64 |  |  | 
O=C(O)c1cn(C2CC2)c2cc(Nc3nccc(Cc4ccc(F)cc4F)n3)c(F)cc2c1=O | 1 (≈ 2.14 µM) | > 64 | 3.12 (≈ 6.69 µM) | 3.12 (≈ 6.69 µM) | 
O=C(O)c1cn(C2CC2)c2cc(Nc3nccc(Cc4ccc(F)c(F)c4)n3)c(F)cc2c1=O | 1 (≈ 2.14 µM) | > 64 | 6.25 (≈ 13.4 µM) | 6.25 (≈ 13.4 µM) | 
Cc1ncc2n1-c1ccc(Cl)cc1C(c1ccccc1F)=NC2 [MIDAZOLAM] |  |  |  |  | k el at 1 µM [7]: 0.00417 s⁻¹; half-life at 1 µM [5]: 2.77 min; microsomal CLint at 1 µM [8]: 1250 µL/min/mg; remaining at 1 h, 1 µM [10]: 0.691%; k el at 1 µM [11]: 0.00448 s⁻¹; half-life at 1 µM [6]: 2.58 min; microsomal CLint at 1 µM [12]: 1350 µL/min/mg; remaining at 1 h, 1 µM [14]: 0.48%
COc1ccc(Cc2ccnc(Nc3cc4c(cc3F)c(=O)c(C(=O)O)cn4C3CC3)n2)cc1 | 4 (≈ 8.69 µM) | > 64 |  |  | 
